Results published in patent US20120202690A1, “HERBICIDAL COMPOUNDS” (SYNGENTA LIMITED, priority 2009, published 2012).

What was measured:
Assay type in all cases: in vivo
[1] = test system: Alopecurus myosuroides (ALOMY); test: Pre-emergence biological efficacy, glasshouse, 1000 g/ha, evaluated after 13 days (100=total damage to plant; 0=no damage to plant); conditions: Alopecurus myosuroides, 312 h, rate 1,000 g/ha, read-out: Percentage damage caused to weed species, pre-emergence, ALOMY
Procedure: (§1) Seeds of Alopecurus myosuroides (ALOMY), Setaria faberi (SETFA), Echinochloa crus-galli (ECHCG), Solanum nigrum (SOLNI), Amaranthus retroflexus (AMARE) and Ipomoea hederaceae (IPOHE) were sown in standard soil in pots. […] The test plants were then grown under controlled conditions in the glasshouse (at 24/16° C., day/night; 14 hours light; 65% humidity) and watered twice daily. […]

[2] = test system: Amaranthus retroflexus (AMARE); test: as above; conditions: Amaranthus retroflexus, 312 h, rate 1,000 g/ha, read-out: Percentage damage caused to weed species, pre-emergence, AMARE
Procedure: as §1

[3] = test system: Echinochloa crus-galli (ECHCG); test: as above; conditions: Echinochloa crus-galli, 312 h, rate 1,000 g/ha, read-out: Percentage damage caused to weed species, pre-emergence, ECHCG
Procedure: as §1

[4] = test system: Ipomoea hederaceae (IPOHE); test: as above; conditions: Ipomoea, 312 h, rate 1,000 g/ha, read-out: Percentage damage caused to weed species, pre-emergence, IPOHE
Procedure: as §1

Setaria faberi (SETFA) [5] = test: as above; conditions: Setaria faberi, 312 h, rate 1,000 g/ha, read-out: Percentage damage caused to weed species, pre-emergence, SETFA
Procedure: as §1

Solanum nigrum (SOLNI) [6] = test: as above; conditions: Solanum nigrum, 312 h, rate 1,000 g/ha, read-out: Percentage damage caused to weed species, pre-emergence, SOLNI
Procedure: as §1

[7] = test system: Alopecurus myosuroides (ALOMY); test: Post-emergence biological efficacy, glasshouse, 500 or 1000 g/ha, evaluated after 13 days (100=total damage to plant; 0=no damage to plant); conditions: Alopecurus myosuroides, 312 h, rate 1,000 g/ha, read-out: Percentage damage caused to weed species, post-emergence, ALOMY
Procedure: as §1, with “Echinochloa […]),” for “Echinochloa crus-galli (ECHCG),”, “grown on” for “grown”, “in a” for “in the”

[8] = test system: Amaranthus retroflexus (AMARE); test: as above; conditions: Amaranthus retroflexus, 312 h, rate 1,000 g/ha, read-out: Percentage damage caused to weed species, post-emergence, AMARE
Procedure: as §1, with “Echinochloa […]),” for “Echinochloa crus-galli (ECHCG),”, “grown on” for “grown”, “in a” for “in the”

[9] = test system: Echinochloa crusgaffi (ECHCG); test: as above; conditions: Echinochloa, 312 h, rate 1,000 g/ha, read-out: Percentage damage caused to weed species, post-emergence, ECHCG
Procedure: as §1, with “Echinochloa […]),” for “Echinochloa crus-galli (ECHCG),”, “grown on” for “grown”, “in a” for “in the”

[10] = test system: Ipomoea hederaceae (IPOHE); test: as above; conditions: Ipomoea, 312 h, rate 1,000 g/ha, read-out: Percentage damage caused to weed species, post-emergence, IPOHE
Procedure: as §1, with “Echinochloa […]),” for “Echinochloa crus-galli (ECHCG),”, “grown on” for “grown”, “in a” for “in the”

Setaria faberi (SETFA) [11] = test: as above; conditions: Setaria faberi, 312 h, rate 1,000 g/ha, read-out: Percentage damage caused to weed species, post-emergence, SETFA
Procedure: as §1, with “Echinochloa […]),” for “Echinochloa crus-galli (ECHCG),”, “grown on” for “grown”, “in a” for “in the”

Solanum nigrum (SOLNI) [12] = test: as above; conditions: Solanum nigrum, 312 h, rate 1,000 g/ha, read-out: Percentage damage caused to weed species, post-emergence, SOLNI
Procedure: as §1, with “Echinochloa […]),” for “Echinochloa crus-galli (ECHCG),”, “grown on” for “grown”, “in a” for “in the”

SMILES | pest or weed control at 1000 g/ha [1] | pest or weed control at 1000 g/ha [2] | pest or weed control at 1000 g/ha [3] | pest or weed control at 1000 g/ha [4] | pest or weed control at 1000 g/ha (Setaria faberi (SETFA) [5]) | pest or weed control at 1000 g/ha (Solanum nigrum (SOLNI) [6]) | pest or weed control at 1000 g/ha [7] | pest or weed control at 1000 g/ha [8] | pest or weed control at 1000 g/ha [9] | pest or weed control at 1000 g/ha [10] | pest or weed control at 1000 g/ha (Setaria faberi (SETFA) [11]) | pest or weed control at 1000 g/ha (Solanum nigrum (SOLNI) [12])
COC(=O)c1nc(-c2ccc(Cl)c(OC)c2F)nc2c1cc(C)n2Cc1ccccc1 [Compound 6-66, 2-(4-Chloro-2-fluoro-3-methoxyphenyl)-4-methoxycarbonyl-6-methyl-7-phenylmethyl-7H-pyrrolo[2,3-d]pyrimidine] | 0% | 10% | 0% | 0% | 0% | 20% | 0% | 40% | 0% | 40% | 10% | 80%
COC(=O)c1nc(-c2ccc(Cl)c(OC)c2F)nc2c1NCCN2Cc1ccccc1 [Compound 95-162, 8-benzyl-2-(4-chloro-2-fluoro-3-methoxyphenyl)-4-methoxycarbonyl-5,6,7,8-tetrahydropteridine] | 10% | 0% | 0% | 40% | 0% | 0% | 10% | 70% | 0% | 30% | 0% | 40%
COC(=O)c1nc(-c2ccc(Cl)c(OC)c2F)nc2c1cc(C)n2Cc1ccccc1[N+](=O)[O-] [Compound 8-66, 2-(4-Chloro-2-fluoro-3-methoxyphenyl)-4-methoxycarbonyl-6-methyl-7-(2-nitrophenyl-methyl)-7H-pyrrolo[2,3-d]pyrimidine] | 0% | 10% | 0% | 0% | 0% | 10% | 0% | 0% | 0% | 10% | 0% | 30%
Cc1c[nH]c2nc(C3CC3)nc(C(=O)O)c12 [Compound 1-3, 4-Carboxy-2-cyclopropyl-5-methyl-7H-pyrrolo[2,3-d]pyrimidine] | 0% | 50% | 0% | 100% | 10% | 20% | 0% | 100% | 0% | 50% | 0% | 80%
COc1c(Cl)ccc(-c2nc(C(=O)O)c3cc(C)n(Cc4ccccc4)c3n2)c1F [Compound 6-65, 4-Carboxy-2-(4-chloro-2-fluoro-3-methoxyphenyl)-6-methyl-7-phenylmethyl-7H-pyrrolo[2,3-d]pyrimidine] | 0% | 0% | 0% | 0% | 0% | 0% | 0% | 20% | 0% | 40% | 0% | 80%
COc1c(Cl)ccc(-c2cc3[nH]cc(C)c3c(C(=O)OCc3ccco3)n2)c1F [Compound 22-87, 6-(4-Chloro-2-fluoro-3-methoxyphenyl)-4-(2-furanyl-methoxycarbonyl)-3-methyl-1H-pyrrolo[3,2-c]pyridine] | 10% | 20% | 10% | 80% | 10% | 70% | 20% | 80% | 10% | 70% | 40% | 90%
CCCCCCCCOC(=O)c1nc(-c2ccc(Cl)c(OC)c2F)nc2[nH]cc(C)c12 [Compound 1-77, 2-(4-Chloro-2-fluoro-3-methoxyphenyl)-5-methyl-4-(n-octyloxycarbonyl)-7H-pyrrolo[2,3-d]pyrimidine] | 0% | 0% | 0% | 0% | 10% | 10% | 0% | 10% | 0% | 40% | 10% | 70%
CCCCCC(C)OC(=O)c1nc(-c2ccc(Cl)c(OC)c2F)cc2[nH]cc(C)c12 (stereo not drawn) [Compound 22-79, 6-(4-Chloro-2-fluoro-3-methoxyphenyl)-4-(hept-2-yloxycarbonyl)-3-methyl-1H-pyrrolo[3,2-c]pyridine] | 10% | 10% | 10% | 30% | 20% | 50% | 10% | 40% | 0% | 40% | 10% | 70%
COC(=O)c1nc(-c2ccc(Cl)c(N(C)C)c2F)nc2[nH]c(C)c(C)c12 [Compound 1-120, 2-(4-Chloro-3-dimethylamino-2-fluorophenyl)-5,6-dimethyl-4-methoxycarbonyl-7H-pyrrolo[2,3-d]pyrimidine] | 0% | 0% | 0% | 0% | 0% | 0% | 0% | 10% | 0% | 20% | 0% | 20%
COC(=O)c1nc(-c2ccc(Cl)c(OC)c2F)nc2c1c(C)cn2Cc1ccccc1 [Compound 6-64, 2-(4-Chloro-2-fluoro-3-methoxyphenyl)-4-methoxycarbonyl-5-methyl-7-phenylmethyl-7H-pyrrolo[2,3-d]pyrimidine] | 0% | 50% | 0% | 30% | 0% | 50% | 0% | 20% | 0% | 50% | 0% | 70%
